As a reminder, the EC50 is the concentration at which the effect is half-maximal. The CC50 is the concentration giving 50% cytotoxicity.

11 compounds from patent US9944598B2, “Mono- or di-substituted indole derivatives as dengue viral replication inhibitors” (priority 2014, dated 2018) can be followed below.

The structures appear in SMILES notation.

Series [1] has as its system DENV-2 NGC-Tongalike. Briefly: Tetravalent RT-qPCR assay Protocol B, serotype 2. The series is classed as cell-based. The following applies: Dengue virus, DENV2, Vero, 96 h. Here is the method: Vero cells (4×10^4) were seeded in 96-well plates. After one day, cell culture medium was replaced with 100 μL assay medium containing a 2×, 3× or 5× serial dilution of the compound (concentration range: 50 μg/mL-0.00038 μg/mL, 50 μg/mL-0.0076 μg/mL, and 50 μg/mL-0.00013 μg/mL, respectively) and 100 μL of dengue virus dilution, where a Ct of ˜20 is achieved in RTqPCR. Following a 2 hour incubation period, the cell monolayer was washed 3 times with assay medium to remove residual, non-adsorbed virus and cultures were further incubated for either 4 days (DENV-2 NGC-Tongalike) or 7 days (DENV-1 Djibouti strain D1/H/IMTSSA/98/606, DENV-3 strain H87 prototype, DENV-4 strain H241) in the presence of the inhibitor. Supernatant was harvested and viral RNA load was determined by real-time quantitative RT-PCR. The 50% effective concentration (EC50), which is defined as the compound concentration that is required to inhibit viral RNA replication by 50%, was determined using logarithmic interpolation (Tables 7 and 8).
RNA was isolated from 100 μL supernatant with the NucleoSpin 96 Virus kit (Filter Service, Düren, Germany) as described by the manufacturer. The sequences of the TaqMan primers (DENV-For, DENV-Rev; Table 5) and TaqMan probes (DENV-Probe Table 5) were selected from non-structural gene 3 (NS3) or NSS, of the respective flaviviruses using Primer Express software (version 2.0; Applied Biosystems, Lennik, Belgium). The TaqMan probe was fluorescently labelled with 6-carboxyfluorescein (FAM) at the 5′ end as the reporter dye, and with minor groove binder (MGB) at the 3′ end as the quencher (Table 5). One-step, quantitative RT-PCR was performed in a total volume of 25 μL, containing 13.9375 μL H2O, 6.25 μL master mix (Eurogentec, Seraing, Belgium), 0.375 μL forward primer, 0.375 μL reverse primer, 1 μL probe, 0.0625 μL reverse transcriptase (Eurogentec) and 3 μL sample. RT-PCR was performed using the ABI 7500 Fast Real-Time PCR System (Applied Biosystems, Branchburg, N.J., USA) using the following conditions: 30 min at 48° C. and 10 min at 95° C., followed by 40 cycles of 15 s at 95° C. and 1 min at 60° C. The data was analyzed using the ABI PRISM 7500 SDS software (version 1.3.1; Applied Biosystems). For absolute quantification, standard curves were generated using 10-fold dilutions of template preparations of known concentrations.

Series [2] in a line: Chiral stability at pH 7.4 (enantiomeric excess by Chiral SFC). The format is physicochemical. The procedure:
The chiral stability of Enantiomer 1A (R=OMe) was evaluated by determination of the enantiomeric excess (ee %) after incubation for 24 h and 48 h in a buffered solution at pH 7.4 at 40° C. and 60° C. To assess the influence of the methoxy-substituent of Enantiomer 1A (R=OMe) on the stability against racemization, the chiral stability of Enantiomer 1′A (R═H) was tested under the same conditions.
To this end, 5 μM buffered (pH=7.4) solutions of 1A and 1′A were prepared by mixing 25 μL of a 100 μM solution of 1A or 1′A in DMSO with 475 μL aqueous buffer pH 7.4. Samples were taken 24 h and 48 h after incubation at 40° C. and 60° C. The analytical samples were analyzed by Chiral SFC (MS detection) and the chiral purity was expressed as the enantiomeric excess (ee %=% enantiomer A−% enantiomer B).

The subject of series [3] is Vero cells. The series can be described thus: in vitro. The series is classed as cell-based. The following applies: African green monkey.

Take `COc1cc(NC(C(=O)c2c[nH]c3cc(OC)c(F)cc23)c2ccc(Cl)cc2OC)cc(OCCO)c1` (single isomer, unassigned) [Compound 7A, 2-(4-chloro-2-methoxyphenyl)-1-(5-fluoro-6-methoxy-1H-indol-3-yl)-2-((3-(2-hydroxyethoxy)-5-methoxyphenyl)amino)ethanone]: the EC50 in series [1] turned out to be 0.27 nM.

As to `COc1cc(NC(C(=O)c2c[nH]c3c(F)cc(C)cc23)c2ccc(Cl)cc2OC)cc(OCCO)c1` (single isomer, unassigned) [Compound 10A, 2-(4-chloro-2-methoxyphenyl)-1-(7-fluoro-5-methyl-1H-indol-3-yl)-2-((3-(2-hydroxyethoxy)-5-methoxyphenyl)amino)ethanone], the EC50 in series [1] worked out at 1.4 nM.

Take `COc1cc(NC(C(=O)c2c[nH]c3c(C)c(Cl)ccc23)c2ccc(Cl)cc2OC)cc(OCCO)c1` (single isomer, unassigned) [Compound 3A, 2-(4-chloro-2-methoxyphenyl)-1-(6-chloro-7-methyl-1H-indol-3-yl)-2-((3-(2-hydroxyethoxy)-5-methoxyphenyl)amino)ethanone]: in series [1], the concentration for a half-maximal effect (EC50) is < 0.33 nM.

In the case of `COc1cc(NC(C(=O)c2c[nH]c3c(C)cc(F)cc23)c2ccc(Cl)cc2OC)cc(OCCO)c1` (single isomer, unassigned) [Compound 8A, 2-(4-chloro-2-methoxyphenyl)-1-(5-fluoro-7-methyl-1H-indol-3-yl)-2-((3-(2-hydroxyethoxy)-5-methoxyphenyl)amino)ethanone], the midpoint of the response in series [1], the EC50, lay at 1.4 nM.

As for `COc1cc(NC(C(=O)c2c[nH]c3cc(F)ccc23)c2ccc(Cl)cc2OC)cc(OCCO)c1` (single isomer, unassigned) [Compound 1A, 2-(4-chloro-2-methoxyphenyl)-1-(6-fluoro-1H-indol-3-yl)-2-((3-(2-hydroxyethoxy)-5-methoxyphenyl)amino)ethanone], the ee % was 100% in series [2] (5 μM buffered solution pH 7.4, 40° C., 24 h); 100% in series [2] (5 μM buffered solution pH 7.4, 40° C., 48 h); 99% in series [2] (5 μM buffered solution pH 7.4, 60° C., 24 h); 96% in series [2] (5 μM buffered solution pH 7.4, 60° C., 48 h). The compound also displayed an EC50 in series [1] of 0.38 nM.

In the case of `COc1cc(NC(C(=O)c2c[nH]c3cc(OC)ccc23)c2ccc(Cl)cc2OC)cc(OCCO)c1` (single isomer, unassigned) [Compound 5A, 2-(4-chloro-2-methoxyphenyl)-2-((3-(2-hydroxyethoxy)-5-methoxyphenyl)amino)-1-(6-methoxy-1H-indol-3-yl)ethanone], the 50% effective concentration (EC50) in series [1] was < 0.4 nM.

`COc1cc(NC(C(=O)c2c[nH]c3c(F)c(F)ccc23)c2ccc(Cl)cc2OC)cc(OCCO)c1` (single isomer, unassigned) [Compound 11B, 2-(4-chloro-2-methoxyphenyl)-1-(6,7-difluoro-1H-indol-3-yl)-2-((3-(2-hydroxyethoxy)-5-methoxyphenyl)amino)ethanone] gave a half-maximal cytotoxic concentration (CC50) in series [3] of 4100 nM. The same compound showed a concentration giving a half-maximal response (EC50) in series [1] of 0.27 nM.

`COc1cc(NC(C(=O)c2c[nH]c3c(C)c(F)ccc23)c2ccc(Cl)cc2OC)cc(OCCO)c1` (single isomer, unassigned) [Compound 2A, 2-(4-chloro-2-methoxyphenyl)-1-(6-fluoro-7-methyl-1H-indol-3-yl)-2-((3-(2-hydroxyethoxy)-5-methoxyphenyl)amino)ethanone] gave an EC50 in series [1] of 0.4 nM.

With `COc1cc(NC(C(=O)c2c[nH]c3cc(F)c(F)cc23)c2ccc(Cl)cc2OC)cc(OCCO)c1` (single isomer, unassigned) [Compound 9A, 2-(4-chloro-2-methoxyphenyl)-1-(5,6-difluoro-1H-indol-3-yl)-2-((3-(2-hydroxyethoxy)-5-methoxyphenyl)amino)ethanone], in series [3], the 50% cytotoxic concentration (CC50) turned out to be 6500 nM. The EC50 in series [1] is < 0.31 nM.

Consider `COc1cc(NC(C(=O)c2c[nH]c3cc(Cl)ccc23)c2ccc(Cl)cc2OC)cc(OCCO)c1` (single isomer, unassigned) [Compound 4A, 1-(6-chloro-1H-indol-3-yl)-2-(4-chloro-2-methoxyphenyl)-2-((3-(2-hydroxyethoxy)-5-methoxyphenyl)amino)ethanone], for which the EC50 in series [1] is < 0.34 nM.

On to `COc1cc(NC(C(=O)c2c[nH]c3cc(OC)c(C)cc23)c2ccc(Cl)cc2OC)cc(OCCO)c1` (single isomer, unassigned) [Compound 6A, 2-(4-chloro-2-methoxyphenyl)-2-((3-(2-hydroxyethoxy)-5-methoxyphenyl)amino)-1-(6-methoxy-5-methyl-1H-indol-3-yl)ethanone], for which a half-maximal response in series [1] (EC50) required 0.4 nM.
